Patent publication US20180153995A1, “USE OF ANTIMICROBIAL POLYMERS FOR RE-SENSITIZATION OF MICROORGANISMS UPON EMERGENCE OF RESISTANCE TO ANTI-MICROBIAL AGENTS” (Technion Research & Development Foundation Limited, priority 2008, published 2018)
Values after ≈ are worked out from the molar mass of the structure shown. Where two headings read alike, the source gives them in different places. Square brackets hold non-standard residues; d marks the D form. Peptide text beside a SMILES is read from it. 12Ado = NCCCCCCCCCCCC(=O)O

Legend:
MRSA 15903 [1] = assay: Sub-MIC time-kill curves (CFU counts); assay type: cell-based, Staphylococcus aureus; conditions: sub-MIC time-kill, single agent
Procedure: At the specified time points of incubation (37° C. under shaking), cultures were subjected to serial 10-fold dilutions (up to 10^6) by adding 50 μl of sample to 450 μl saline (0.85% NaCl). Cell counts were determined using the drop plate method (three 20-μl drops onto LB-agar plates). Plates were incubated at 37° C. and colonies were counted for the calculation after incubation for 24 hours.

MRSA 15903 [2] = assay: microbe, parasite or virus in culture; assay type: cell-based, Staphylococcus aureus; conditions: for MIC, ¼ + MIC OAK: with C12K(KNC10K)3NH2 (SEQ ID NO: 10) at ¼ of its MIC; for MIC, ½ + MIC OAK: with C12K(KNC10K)3NH2 (SEQ ID NO: 10) at ½ of its MIC; for MIC, ⅓ + MIC OAK: with C12K(KNC10K)3NH2 (SEQ ID NO: 10) at ⅓ of its MIC
Procedure: (§1) The fractionary inhibitory (FIC) concentration index for combinations of two antimicrobial agents was calculated as follows: FIC index=FICA+FICB=A/MICA+B/MICB where A and B are the MIC values of agent A and agent B in the combination, MICA and MICB are the MICs of agent A and agent B alone, and FICA and FICB are the FICs of agent A and agent B.
(§2) The FIC indexes were interpreted as follows: less than 0.5 indicates a clear re-sensitizing effect; from 0.5 to 4 indicates a marginal or null re-sensitizing effect; and over 4 indicates antagonism.
Experimental data for FIG. 4 were obtained as follows.

MRSA 15852 = assay type: cell-based, Staphylococcus aureus; conditions: 15852
Procedure: as §1, §2

ATCC 25923 = assay: microbe, parasite or virus in culture; assay type: cell-based, Staphylococcus aureus; conditions: ATCC 25923
Procedure: (§3) MICs were determined by microdilution susceptibility testing in 96-well plates (by Nunc) using inocula of 10^5 bacteria per ml. Cell populations were evaluated by optical density measurements at 620 nm and were calibrated against a set of standards. Hundred (100) μl of a bacterial suspension were added to 100 μl of culture medium (control) or to 100 μl of culture medium containing various polymer concentrations in 2-fold serial dilutions. Inhibition of proliferation was determined by optical density measurements at 620 nm after an incubation period of 24 hours at 37° C.

MRSA 15918 = assay: microbe, parasite or virus in culture; assay type: cell-based, Staphylococcus aureus; conditions: 15918
Procedure: as §3, §1, §2

ATCC 29213 = assay: microbe, parasite or virus in culture; assay type: cell-based, Staphylococcus aureus; conditions: ATCC 29213
Procedure: as §3, §1, §2

E. coli D21 = assay: Antibiotic MIC with or without sub-MIC polymer (Tables 20, 21); assay type: cell-based, Escherichia coli
E. coli AG100 = assay: as above; assay type: cell-based, Escherichia coli
E. coli AG100/ks = assay: as above; assay type: cell-based, Escherichia coli
E. coli G11a1 = assay: as above; assay type: cell-based, Escherichia coli
Procedure: as §3

[3] = Staphylococcus aureus, MRSA, 24 h, MRSA 15903, antibiotic alone (Table 22), read-out: MIC, Alone

NCCCCCCCCCCCC(=O)N[C@@H](CCCCN)C(=O)NCCCCCCCCCCCC(=O)N[C@@H](CCCCN)C(=O)N[C@@H](CCCCN)C(=O)NCCCCCCCCCCCC(=O)N[C@@H](CCCCN)C(N)=O [NC12(KNC12K)2NH2] (H-[12Ado]K[12Ado]KK[12Ado]K-NH2)
bactericidal activity, agent alone (MRSA 15903 [1]): no bactericidal activity | MIC (MRSA 15903 [2]; 15903): 6.2 µM | improvement (decrease) in the polymer's MIC in presence of oxacillin (MRSA 15903 [2]; MRSA 15903, polymer + sub-MIC oxacillin): twofold | MIC of polymer (MRSA 15903 [2]; MRSA 15903, polymer alone): 6.25 µM | optimal re-sensitization polymer concentration (MRSA 15903 [2]; MRSA 15903, with oxacillin): 2.1 µM | MIC (MRSA 15852): 3.1 µM | MIC (ATCC 25923): 3.1 µM (≈ 3.48 µg/mL) | MIC (MRSA 15918): 6.2 µM | MIC (ATCC 29213): 3.1 µM

CC1(C)S[C@@H]2[C@H](NC(=O)[C@H](N)c3ccccc3)C(=O)N2[C@H]1C(=O)O [ampicillin]
Antibiotic MIC, None (E. coli D21; antibiotic alone (Table 20)): 64 µg/mL | Antibiotic MIC, None (E. coli D21; antibiotic alone (Table 21)): 64 µg/mL | Antibiotic MIC in presence of C12K(NC8K)5NH2 (SEQ ID NO: 3), +¼ MIC (E. coli D21; polymer at ¼ of its MIC): 64 µg/mL | Antibiotic MIC in presence of C12K(NC8K)7NH2 (SEQ ID NO: 4), +¼ MIC (E. coli D21; polymer at ¼ of its MIC): 64 µg/mL | Antibiotic MIC in presence of C12K(NC8K)5NH2 (SEQ ID NO: 3), +½ MIC (E. coli D21; polymer at ½ of its MIC): 32 µg/mL | Antibiotic MIC in presence of C12K(NC8K)7NH2 (SEQ ID NO: 4), +½ MIC (E. coli D21; polymer at ½ of its MIC): 32 µg/mL | Antibiotic MIC in presence of C12K(NC8K)5NH2 (SEQ ID NO: 3), +⅓ MIC (E. coli D21; polymer at ⅓ of its MIC): 64 µg/mL | Antibiotic MIC in presence of C12K(NC8K)7NH2 (SEQ ID NO: 4), +⅓ MIC (E. coli D21; polymer at ⅓ of its MIC): 64 µg/mL | Antibiotic MIC, None (E. coli AG100; antibiotic alone (Table 20)): 4 µg/mL | Antibiotic MIC, None (E. coli AG100; antibiotic alone (Table 21)): 4 µg/mL | Antibiotic MIC, None (E. coli AG100/ks; antibiotic alone (Table 20)): >512 µg/mL | Antibiotic MIC, None (E. coli AG100/ks; antibiotic alone (Table 21)): >512 µg/mL | Antibiotic MIC in presence of C12K(NC8K)5NH2 (SEQ ID NO: 3), +¼ MIC (E. coli AG100/ks; polymer at ¼ of its MIC): >512 µg/mL | Antibiotic MIC in presence of C12K(NC8K)7NH2 (SEQ ID NO: 4), +¼ MIC (E. coli AG100/ks; polymer at ¼ of its MIC): >512 µg/mL | Antibiotic MIC in presence of C12K(NC8K)5NH2 (SEQ ID NO: 3), +½ MIC (E. coli AG100/ks; polymer at ½ of its MIC): >512 µg/mL | Antibiotic MIC in presence of C12K(NC8K)7NH2 (SEQ ID NO: 4), +½ MIC (E. coli AG100/ks; polymer at ½ of its MIC): >512 µg/mL | Antibiotic MIC in presence of C12K(NC8K)5NH2 (SEQ ID NO: 3), +⅓ MIC (E. coli AG100/ks; polymer at ⅓ of its MIC): >512 µg/mL | Antibiotic MIC in presence of C12K(NC8K)7NH2 (SEQ ID NO: 4), +⅓ MIC (E. coli AG100/ks; polymer at ⅓ of its MIC): >512 µg/mL | Antibiotic MIC, None (E. coli G11a1; antibiotic alone (Table 20)): 64 µg/mL | Antibiotic MIC, None (E. coli G11a1; antibiotic alone (Table 21)): 64 µg/mL | Antibiotic MIC in presence of C12K(NC8K)5NH2 (SEQ ID NO: 3), +¼ MIC (E. coli G11a1; polymer at ¼ of its MIC): 64 µg/mL | Antibiotic MIC in presence of C12K(NC8K)7NH2 (SEQ ID NO: 4), +¼ MIC (E. coli G11a1; polymer at ¼ of its MIC): 64 µg/mL | Antibiotic MIC in presence of C12K(NC8K)5NH2 (SEQ ID NO: 3), +½ MIC (E. coli G11a1; polymer at ½ of its MIC): 32 µg/mL | Antibiotic MIC in presence of C12K(NC8K)7NH2 (SEQ ID NO: 4), +½ MIC (E. coli G11a1; polymer at ½ of its MIC): 32 µg/mL | Antibiotic MIC in presence of C12K(NC8K)5NH2 (SEQ ID NO: 3), +⅓ MIC (E. coli G11a1; polymer at ⅓ of its MIC): 64 µg/mL | Antibiotic MIC in presence of C12K(NC8K)7NH2 (SEQ ID NO: 4), +⅓ MIC (E. coli G11a1; polymer at ⅓ of its MIC): 64 µg/mL

Cc1nnc(SCC2=C(C(=O)O)N3C(=O)[C@@H](NC(=O)Cn4cnnn4)[C@H]3SC2)s1 [cefazolin]
MIC, ¼ + MIC OAK (MRSA 15903 [2]; MRSA 15903): 16 µg/mL | MIC, ½ + MIC OAK (MRSA 15903 [2]; MRSA 15903): 2 to 4 µg/mL | MIC, ⅓ + MIC OAK (MRSA 15903 [2]; MRSA 15903): 8 to 16 µg/mL | MIC (MRSA 15903 [2]; [3]): 16 µg/mL

CCN1CCN(C(=O)N[C@@H](C(=O)N[C@@H]2C(=O)N3C(C(=O)O)=C(CSc4nnnn4C)CS[C@H]23)c2ccc(O)cc2)C(=O)C1=O [cefoperazone]
MIC, ¼ + MIC OAK (MRSA 15903 [2]; MRSA 15903): 16 µg/mL | MIC, ½ + MIC OAK (MRSA 15903 [2]; MRSA 15903): 4 µg/mL | MIC, ⅓ + MIC OAK (MRSA 15903 [2]; MRSA 15903): 8 to 16 µg/mL | MIC (MRSA 15903 [2]; [3]): 16 µg/mL

CO/N=C(\C(=O)N[C@@H]1C(=O)N2C(C(=O)O)=C(COC(C)=O)CS[C@H]12)c1csc(N)n1 [cefotaxime]
MIC, ¼ + MIC OAK (MRSA 15903 [2]; MRSA 15903): 32 µg/mL | MIC, ½ + MIC OAK (MRSA 15903 [2]; MRSA 15903): 4 µg/mL | MIC, ⅓ + MIC OAK (MRSA 15903 [2]; MRSA 15903): 16 µg/mL | MIC (MRSA 15903 [2]; [3]): 32 µg/mL

CN[C@H](CC(C)C)C(=O)N[C@H]1C(=O)N[C@@H](CC(N)=O)C(=O)N[C@H]2C(=O)N[C@H]3C(=O)N[C@H](C(=O)N[C@H](C(=O)O)c4cc(O)cc(O)c4-c4cc3ccc4O)[C@H](O)c3ccc(c(Cl)c3)Oc3cc2cc(c3O[C@@H]2O[C@H](CO)[C@@H](O)[C@H](O)[C@H]2O[C@H]2C[C@](C)(N)[C@H](O)[C@H](C)O2)Oc2ccc(cc2Cl)[C@H]1O [vancomycin]
MIC, ¼ + MIC OAK (MRSA 15903 [2]; MRSA 15903): 1 µg/mL | MIC, ½ + MIC OAK (MRSA 15903 [2]; MRSA 15903): 1 µg/mL | MIC, ⅓ + MIC OAK (MRSA 15903 [2]; MRSA 15903): 1 µg/mL | MIC (MRSA 15903 [2]; Staphylococcus aureus, MRSA, 24 h, read-out: MIC, Alone): 1 µg/mL
